This note sets out measurements from ChEMBL document CHEMBL1157712, “Hit to lead account of the discovery of bisbenzamide and related ureidobenzamide inhibitors of Rho kinase” (J Med Chem, 2010).

Molecules are shown by their SMILES. Converted amounts (≈) assume the structure as drawn. Bounds are passed on as bounds.

In general, solubility refers to how much of the substance goes into solution per volume. What is called IC50 is the point on the concentration scale where inhibition reaches its midpoint. Read a low IC50 as inhibition by little substance. As usually defined, the efflux ratio is a quotient of directional permeabilities that is used to spot active efflux. One may read the half-life as the time in which the quantity being followed falls by half. What is called bioavailability is the share of a dose that reaches the circulation, judged against a reference dose that is usually intravenous. A high value points to good availability.

Series [1] can be described thus: Solubility at pH 7.4. As to conditions: buffer. Format: physicochemical.
The target in series [2] is T1, Cytochrome P450 3A4 (Homo sapiens, UniProt P08684). Put plainly: Inhibition of human CYP3A4 using BQ substrate by fluorescence assay. Format: ADME.
The species named for a further series is Rattus norvegicus. The series can be described thus: Induction of relaxation activity of phenylephrine-induced Sprague-Dawley rat aortic ring contraction. As to conditions: Aorta. In kind it is functional.
For series [3], the target named is T1, Cytochrome P450 3A4. Put plainly: Inhibition of human CYP3A4 using BFC substrate by fluorescence assay. In kind it is ADME.
Series [4] deals with Rho-associated protein kinase 1 (Homo sapiens, UniProt Q13464). The series can be described thus: Inhibition of human ROCK1 by homogenous luciferase assay.
Series [5] in a line: Solubility at pH 4.5. In kind it is physicochemical. As to conditions: buffer.
The target in series [6] is T2, Cytochrome P450 1A2 (Homo sapiens, UniProt P05177).
T2 sequence (P05177 whole entry): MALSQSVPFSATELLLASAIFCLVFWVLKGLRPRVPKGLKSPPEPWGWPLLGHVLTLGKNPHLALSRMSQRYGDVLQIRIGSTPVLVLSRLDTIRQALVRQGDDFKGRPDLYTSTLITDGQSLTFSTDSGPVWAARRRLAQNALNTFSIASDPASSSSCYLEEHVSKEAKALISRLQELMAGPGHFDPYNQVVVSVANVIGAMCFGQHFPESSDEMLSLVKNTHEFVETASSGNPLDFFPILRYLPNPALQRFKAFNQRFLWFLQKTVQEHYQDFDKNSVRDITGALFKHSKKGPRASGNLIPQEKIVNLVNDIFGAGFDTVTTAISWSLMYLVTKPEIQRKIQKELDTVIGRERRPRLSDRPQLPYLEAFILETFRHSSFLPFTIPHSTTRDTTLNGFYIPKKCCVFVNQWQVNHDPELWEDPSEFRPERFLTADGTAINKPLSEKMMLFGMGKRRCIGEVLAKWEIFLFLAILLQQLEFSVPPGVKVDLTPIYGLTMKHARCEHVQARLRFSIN
The series can be described thus: Inhibition of human CYP1A2 by fluorescence assay. Format: ADME.

Series [7] in a line: (§1) Permeability from apical to basolateral side in human Caco-2 cells. In kind it is ADME, cell-based. As to conditions: Caco-2, read-out: permeability.
A further series has as its target Cytochrome P450 2C19 (Homo sapiens, UniProt P33261). The series can be described thus: Inhibition of human CYP2C19 by fluorescence assay. In kind it is ADME.
The next series can be described thus: in vitro. To be noted: human, Caco-2.
For series [8], the target named is T3, Cytochrome P450 2D6 (Homo sapiens, UniProt P10635). Put plainly: Inhibition of human CYP2D6 by fluorescence assay. Format: ADME.
A short description of series [9]: Metabolic stability in human liver microsomes assessed as half life. Format: ADME, Microsome. (Liver microsomes are a subcellular fraction often used to study metabolism.)
A short description of series [10]: Permeability from basolateral to apical side in human Caco-2 cells. Format: ADME, cell-based. To be noted: read-out: permeability. (In general: Caco-2 cells form a polarised layer with tight junctions and transporters.)
For series [11], the target named is T4, Cytochrome P450 2C9 (Homo sapiens, UniProt P11712). The series can be described thus: Inhibition of human CYP2C9 by fluorescence assay. In kind it is ADME.
Series [12] addresses T5, Rho-associated protein kinase 2 (Homo sapiens, UniProt O75116).
Description: Inhibition of human ROCK2 by homogenous luciferase assay
The target of series [13] is T4, Cytochrome P450 2C9. The series can be described thus: Inhibition of human CYP2C9 by LCMS/MS assay. Format: ADME.
Series [14] deals with T1, Cytochrome P450 3A4. Put plainly: Inhibition of human CYP3A4 by LCMS/MS assay. In kind it is ADME.
In series [15] the target is T3, Cytochrome P450 2D6. Put plainly: Inhibition of human CYP2D6 by LCMS/MS assay. In kind it is ADME.
Series [16] is described as follows: Membrane permeability by PAMPA assay. Format: ADME. As to conditions: read-out: permeability. In general terms: The PAMPA barrier holds no transporters, so it reflects passive diffusion.
Series [17] concerns the target T2, Cytochrome P450 1A2. Put plainly: Inhibition of human CYP1A2 by LCMS/MS assay. In kind it is ADME.
Series [18] addresses Serine/threonine-protein kinase N2 (Homo sapiens, UniProt Q16513).
The target of series [19] is Serine/threonine-protein kinase MRCK beta (Homo sapiens) (UniProt Q9Y5S2). The series can be described thus: Inhibition of CDC42BPB.
The next series deals with ROCK1 (Homo sapiens). Put plainly: Inhibition of ROCK1.
Series [20] concerns the target T6, Protein kinase C epsilon type (Homo sapiens, UniProt Q02156).
T6 sequence (Q02156 whole entry): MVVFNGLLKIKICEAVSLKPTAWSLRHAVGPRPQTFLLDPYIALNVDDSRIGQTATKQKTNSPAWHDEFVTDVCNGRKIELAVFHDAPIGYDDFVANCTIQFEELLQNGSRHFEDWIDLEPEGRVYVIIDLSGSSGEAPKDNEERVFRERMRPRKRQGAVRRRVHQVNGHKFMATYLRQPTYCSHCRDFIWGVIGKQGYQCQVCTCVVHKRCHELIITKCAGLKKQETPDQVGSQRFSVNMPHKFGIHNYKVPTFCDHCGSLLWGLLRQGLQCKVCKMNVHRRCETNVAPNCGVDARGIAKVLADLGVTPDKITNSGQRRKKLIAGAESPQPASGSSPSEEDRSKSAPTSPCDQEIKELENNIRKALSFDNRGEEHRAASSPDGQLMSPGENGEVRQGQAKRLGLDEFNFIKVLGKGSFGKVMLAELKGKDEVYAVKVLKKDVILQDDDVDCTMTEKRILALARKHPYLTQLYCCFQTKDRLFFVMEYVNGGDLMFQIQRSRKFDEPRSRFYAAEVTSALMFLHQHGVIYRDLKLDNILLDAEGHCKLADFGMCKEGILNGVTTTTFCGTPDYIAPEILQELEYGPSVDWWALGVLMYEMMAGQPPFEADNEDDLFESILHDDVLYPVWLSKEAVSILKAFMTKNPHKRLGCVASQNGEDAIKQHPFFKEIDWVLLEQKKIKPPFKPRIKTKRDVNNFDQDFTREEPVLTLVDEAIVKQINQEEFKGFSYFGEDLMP
Put plainly: Inhibition of PKCepsilon.

Series [21] concerns the target T5, Rho-associated protein kinase 2. Put plainly: Inhibition of human ROCK2 by IMAP assay.
Series [22] in a line: Bioavailability in rat. In kind it is ADME, organism-based. To be noted: in vivo.
For another series, the system named is Caco-2. The series is described as §1. Format: ADME, cell-based. To be noted: caco-2, BLD = below limit of detection.

T4 sequence (P11712 whole entry): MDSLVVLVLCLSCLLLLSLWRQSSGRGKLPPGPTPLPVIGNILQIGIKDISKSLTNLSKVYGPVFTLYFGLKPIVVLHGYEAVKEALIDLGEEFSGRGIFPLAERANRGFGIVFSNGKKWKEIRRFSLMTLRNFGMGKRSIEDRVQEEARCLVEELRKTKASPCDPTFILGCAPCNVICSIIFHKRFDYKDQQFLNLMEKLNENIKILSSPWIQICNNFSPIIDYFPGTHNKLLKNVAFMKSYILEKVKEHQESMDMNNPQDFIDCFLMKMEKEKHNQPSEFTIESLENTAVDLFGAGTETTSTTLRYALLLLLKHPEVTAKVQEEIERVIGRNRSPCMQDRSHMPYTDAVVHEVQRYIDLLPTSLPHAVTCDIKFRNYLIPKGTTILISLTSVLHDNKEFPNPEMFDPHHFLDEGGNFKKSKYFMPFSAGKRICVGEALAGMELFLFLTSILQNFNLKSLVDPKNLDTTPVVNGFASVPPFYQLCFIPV
T3 sequence (P10635 whole entry): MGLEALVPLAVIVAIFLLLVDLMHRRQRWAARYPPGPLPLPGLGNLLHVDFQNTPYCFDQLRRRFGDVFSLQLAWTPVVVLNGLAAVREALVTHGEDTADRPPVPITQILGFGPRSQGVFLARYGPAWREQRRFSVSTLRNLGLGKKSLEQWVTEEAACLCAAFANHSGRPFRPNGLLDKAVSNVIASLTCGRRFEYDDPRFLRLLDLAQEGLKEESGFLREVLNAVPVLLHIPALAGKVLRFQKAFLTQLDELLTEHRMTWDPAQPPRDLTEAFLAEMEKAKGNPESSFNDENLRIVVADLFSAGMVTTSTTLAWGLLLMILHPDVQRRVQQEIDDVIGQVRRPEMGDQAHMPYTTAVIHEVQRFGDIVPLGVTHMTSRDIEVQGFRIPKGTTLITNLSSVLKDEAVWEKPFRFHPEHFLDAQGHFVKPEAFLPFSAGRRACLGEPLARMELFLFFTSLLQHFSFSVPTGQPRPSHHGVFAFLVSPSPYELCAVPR
Serine/threonine-protein kinase N2, sequence (Q16513 whole entry): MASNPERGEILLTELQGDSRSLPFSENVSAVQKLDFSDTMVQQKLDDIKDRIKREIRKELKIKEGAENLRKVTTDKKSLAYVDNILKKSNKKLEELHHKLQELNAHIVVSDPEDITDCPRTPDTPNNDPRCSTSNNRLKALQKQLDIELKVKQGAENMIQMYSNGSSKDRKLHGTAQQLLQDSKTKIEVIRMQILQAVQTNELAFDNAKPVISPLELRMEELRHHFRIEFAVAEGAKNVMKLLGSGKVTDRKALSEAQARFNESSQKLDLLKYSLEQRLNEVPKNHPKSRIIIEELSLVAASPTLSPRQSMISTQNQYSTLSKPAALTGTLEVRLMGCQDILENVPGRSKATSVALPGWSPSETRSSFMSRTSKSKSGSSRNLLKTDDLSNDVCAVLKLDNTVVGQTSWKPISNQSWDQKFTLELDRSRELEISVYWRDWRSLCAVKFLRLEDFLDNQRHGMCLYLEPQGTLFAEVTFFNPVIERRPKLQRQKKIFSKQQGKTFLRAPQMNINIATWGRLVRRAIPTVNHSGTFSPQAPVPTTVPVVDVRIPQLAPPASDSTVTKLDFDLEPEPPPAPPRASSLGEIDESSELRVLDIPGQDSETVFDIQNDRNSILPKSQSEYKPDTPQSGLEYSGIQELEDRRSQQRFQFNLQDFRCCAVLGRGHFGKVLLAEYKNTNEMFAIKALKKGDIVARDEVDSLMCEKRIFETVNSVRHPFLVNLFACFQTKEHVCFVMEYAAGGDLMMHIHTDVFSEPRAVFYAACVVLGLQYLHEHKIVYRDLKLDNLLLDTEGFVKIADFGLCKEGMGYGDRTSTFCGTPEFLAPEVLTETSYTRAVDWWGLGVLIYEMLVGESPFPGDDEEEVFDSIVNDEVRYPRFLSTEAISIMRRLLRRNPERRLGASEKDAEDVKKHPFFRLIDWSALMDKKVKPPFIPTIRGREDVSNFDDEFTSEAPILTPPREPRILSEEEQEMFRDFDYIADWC
T1 sequence (P08684 whole entry): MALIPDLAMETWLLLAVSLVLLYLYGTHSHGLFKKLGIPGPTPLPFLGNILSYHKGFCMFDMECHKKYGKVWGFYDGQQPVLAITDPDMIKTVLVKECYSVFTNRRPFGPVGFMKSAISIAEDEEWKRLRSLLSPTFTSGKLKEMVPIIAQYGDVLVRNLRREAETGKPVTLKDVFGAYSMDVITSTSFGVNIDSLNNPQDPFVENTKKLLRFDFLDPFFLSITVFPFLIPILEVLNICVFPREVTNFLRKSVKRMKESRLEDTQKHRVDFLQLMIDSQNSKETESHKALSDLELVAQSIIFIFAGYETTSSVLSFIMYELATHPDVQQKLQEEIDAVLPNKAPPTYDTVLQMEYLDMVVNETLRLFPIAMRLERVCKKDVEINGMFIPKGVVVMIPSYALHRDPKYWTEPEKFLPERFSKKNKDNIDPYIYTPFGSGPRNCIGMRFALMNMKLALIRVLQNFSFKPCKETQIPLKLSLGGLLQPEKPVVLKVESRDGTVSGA
T5 sequence (O75116 whole entry): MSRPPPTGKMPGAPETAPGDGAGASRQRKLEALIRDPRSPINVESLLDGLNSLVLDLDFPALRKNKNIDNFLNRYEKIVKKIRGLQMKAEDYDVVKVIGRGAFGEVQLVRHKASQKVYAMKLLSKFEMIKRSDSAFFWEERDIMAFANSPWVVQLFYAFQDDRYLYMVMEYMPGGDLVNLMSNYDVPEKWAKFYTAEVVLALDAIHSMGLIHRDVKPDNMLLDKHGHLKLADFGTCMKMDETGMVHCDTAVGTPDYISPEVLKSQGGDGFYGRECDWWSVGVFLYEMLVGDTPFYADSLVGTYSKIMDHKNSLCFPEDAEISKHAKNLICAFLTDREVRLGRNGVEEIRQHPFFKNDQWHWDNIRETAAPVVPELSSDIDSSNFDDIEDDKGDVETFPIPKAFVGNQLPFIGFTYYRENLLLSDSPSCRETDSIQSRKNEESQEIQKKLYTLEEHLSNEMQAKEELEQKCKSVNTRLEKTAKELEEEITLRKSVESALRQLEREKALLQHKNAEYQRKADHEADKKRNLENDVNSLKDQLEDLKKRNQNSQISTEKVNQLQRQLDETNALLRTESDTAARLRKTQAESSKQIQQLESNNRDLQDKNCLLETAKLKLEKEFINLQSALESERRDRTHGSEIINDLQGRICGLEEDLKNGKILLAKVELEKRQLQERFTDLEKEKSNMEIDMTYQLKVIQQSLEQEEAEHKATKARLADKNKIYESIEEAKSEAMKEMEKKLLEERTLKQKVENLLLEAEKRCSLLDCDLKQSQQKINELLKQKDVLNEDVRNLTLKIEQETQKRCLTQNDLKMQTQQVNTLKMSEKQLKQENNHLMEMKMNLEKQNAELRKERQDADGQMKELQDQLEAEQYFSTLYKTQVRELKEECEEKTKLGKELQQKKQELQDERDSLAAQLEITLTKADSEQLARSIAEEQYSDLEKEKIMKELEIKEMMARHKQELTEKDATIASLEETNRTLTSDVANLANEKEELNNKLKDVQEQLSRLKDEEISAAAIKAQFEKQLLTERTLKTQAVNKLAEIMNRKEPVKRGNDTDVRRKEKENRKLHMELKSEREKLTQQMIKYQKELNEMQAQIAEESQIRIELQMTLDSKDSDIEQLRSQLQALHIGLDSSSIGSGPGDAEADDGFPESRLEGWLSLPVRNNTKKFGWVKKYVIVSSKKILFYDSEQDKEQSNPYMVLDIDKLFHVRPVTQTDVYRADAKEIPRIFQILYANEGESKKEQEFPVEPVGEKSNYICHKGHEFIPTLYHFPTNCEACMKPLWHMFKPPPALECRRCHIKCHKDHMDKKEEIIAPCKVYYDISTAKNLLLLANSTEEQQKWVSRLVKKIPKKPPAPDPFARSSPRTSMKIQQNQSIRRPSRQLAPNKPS
Cytochrome P450 2C19, sequence (P33261 whole entry): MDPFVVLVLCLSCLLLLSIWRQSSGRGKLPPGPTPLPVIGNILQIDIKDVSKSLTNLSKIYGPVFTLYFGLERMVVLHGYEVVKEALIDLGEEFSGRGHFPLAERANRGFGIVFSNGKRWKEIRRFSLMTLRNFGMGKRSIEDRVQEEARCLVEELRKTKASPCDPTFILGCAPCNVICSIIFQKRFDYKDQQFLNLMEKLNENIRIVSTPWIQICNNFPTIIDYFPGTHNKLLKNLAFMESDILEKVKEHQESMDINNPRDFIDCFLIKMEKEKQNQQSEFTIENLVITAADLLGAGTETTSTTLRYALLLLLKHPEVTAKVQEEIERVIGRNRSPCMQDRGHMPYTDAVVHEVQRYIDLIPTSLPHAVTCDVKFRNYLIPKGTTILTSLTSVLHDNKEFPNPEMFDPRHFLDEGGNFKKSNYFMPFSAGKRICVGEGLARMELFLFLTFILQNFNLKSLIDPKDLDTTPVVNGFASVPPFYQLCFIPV
Description for in vitro: Ratio of permeability from basolateral to apical side over apical to basolateral side in human Caco-2 cells

As to `COc1ccc(C(=O)NCc2cccc(C(=O)NCCc3ccncc3)c2)cc1OC`, the solubility in series [1] was 63 µg/mL (≈ 150 µM); in [5] it was above 100 µg/mL. Further, the IC50 against Cytochrome P450 3A4 [2] was 21 µM; in the series filed under Rattus norvegicus, 1.9 µM; against Cytochrome P450 3A4 [3], 4 µM; in [4] it was 4.3 µM; against Cytochrome P450 1A2 [6], above 30 µM; against Cytochrome P450 2C19 it was above 30 µM. For the same molecule, the IC50 is above 30 µM against Cytochrome P450 2D6 [8], 16 µM at Cytochrome P450 2C9 [11] and 2.3 µM in series [12]. Besides, in [7], the Papp A→B came to 0.5 ×10⁻⁶ cm/s. In the series “in vitro”, the efflux ratio amounted to 58. Besides, in series [9], the half-life came out at 10 min. Moreover, in series [10], the Papp B→A worked out at 29.1 ×10⁻⁶ cm/s.

In the case of `COc1ccc(C(=O)NCc2cccc(C(=O)Nc3ccc(CO)cc3)c2)cc1OC`, the IC50 against Cytochrome P450 2C9 [13] was above 30 µM; against Cytochrome P450 3A4 [14] it was above 30 µM; on Cytochrome P450 2D6 [15], above 30 µM; at Cytochrome P450 1A2 [17] it was above 30 µM; in series [12], 0.87 µM. In addition, in series [1], the solubility is 48 µg/mL (≈ 114 µM). Further, in series [7], the Papp A→B was 0.6 ×10⁻⁶ cm/s. In addition, the half-life in series [9] is 41 min. Also, the Papp B→A in series [10] was 16.1 ×10⁻⁶ cm/s. In addition, the Papp in [16] is 10 ×10⁻⁶ cm/s.

For the molecule `COc1ccc(C(=O)NCc2cccc(NC(=O)CCC3CCCNC3)c2)cc1OC` (centres undefined), the IC50 in [18] is above 5 µM; in [19], above 5 µM; with ROCK1 (Homo sapiens) it was 0.19 µM; in series [12], 0.073 µM; in series [20] it was above 5 µM.

Take `N#Cc1ccc(NC(=O)NCc2cccc(C(=O)NCCC3CCCNC3)c2)cc1` (centres undefined): the IC50 in series [18] is 1.7 µM; in [19], above 5 µM; with ROCK1 (Homo sapiens), 0.031 µM; in [12], 0.018 µM; in [20] it was above 5 µM.

In the case of `COc1ccc(C(=O)NCc2cccc(C(=O)Nc3ccc(CN(C)C)cc3)c2)cc1C`, the IC50 against Cytochrome P450 2C9 [13] was 12.5 µM; against Cytochrome P450 3A4 [14] it was 13.5 µM; against Cytochrome P450 2D6 [15], above 30 µM; in [21], 0.66 µM; against Cytochrome P450 1A2 [17], above 30 µM. In [1], this molecule yielded a solubility above 88 µg/mL. Further, the Papp A→B in series [7] worked out at 7.9 ×10⁻⁶ cm/s. Moreover, the Papp B→A in [10] was 30.8 ×10⁻⁶ cm/s. Further, in series [16], the Papp is 21 ×10⁻⁶ cm/s.

Regarding `COc1ccc(C(=O)NCc2cccc(C(=O)Nc3ccc(CN(C)C)cc3)c2)cc1Cl`, the IC50 at Cytochrome P450 2C9 [13] is above 30 µM; in the series listed under Rattus norvegicus, 1.6 µM; against Cytochrome P450 3A4 [14], above 30 µM; at Cytochrome P450 2D6 [15], above 30 µM; in [18], above 5 µM; in [19], above 5 µM. Besides, the half-inhibitory concentration (IC50) at Cytochrome P450 1A2 [17] is above 30 µM; in [20], above 5 µM. The solubility in series [1] is above 96 µg/mL. Further, in [7], the Papp A→B was determined as 7.7 ×10⁻⁶ cm/s. Moreover, the Papp B→A in series [10] turned out to be 45.3 ×10⁻⁶ cm/s. Moreover, in [16], the Papp amounted to 24 ×10⁻⁶ cm/s.

Turning to `COc1ccc(C(=O)NCc2cccc(C(=O)Nc3ccc(CN(C)C)cc3)c2)cc1OC`, the solubility in series [1] is above 100 µg/mL. For the same molecule, the IC50 is above 30 µM against Cytochrome P450 3A4 [2]; 6 µM in the series listed under Rattus norvegicus; 8.5 µM against Cytochrome P450 3A4 [3]; above 30 µM at Cytochrome P450 1A2 [6]; above 5 µM in [18]; above 30 µM against Cytochrome P450 2C19. In addition, the IC50 against Cytochrome P450 2D6 [8] is above 30 µM; in series [19] it was above 5 µM; in series [21] it was 0.23 µM; on Cytochrome P450 2C9 [11] it was above 30 µM; in series [12], 0.069 µM; in series [20], above 5 µM. Also, the bioavailability in series [22] was 1.8%. Also, in the series on Caco-2, the permeability result is “BLD”. In addition, the half-life in series [9] was found to be 66 min. The Papp B→A in [10] was 14.6 ×10⁻⁶ cm/s. In addition, the Papp in series [16] amounted to 10 ×10⁻⁶ cm/s.
